According to PubChem BioAssay AID1259407 (Chemical Carcinogenesis Research Information System (CCRIS), 2018):
Activity calls are given as the source filed them. No rule for the calls is given here.

Tested on: CCRIS mutagenicity, Ames/micronucleus/aberration tests
Experiment: CCRIS mutagenicity studies
[1] = Test System: AMES SALMONELLA TYPHIMURIUM, Strain/Indicator: TA98, Metabolic Activation: NONE, Method: STANDARD PLATE
[2] = Test System: AMES SALMONELLA TYPHIMURIUM, Strain/Indicator: TA98, Metabolic Activation: RAT, LIVER, S-9, AROCLOR 1254, Method: STANDARD PLATE
[3] = Test System: AMES SALMONELLA TYPHIMURIUM, Strain/Indicator: TA100, Metabolic Activation: NONE, Method: STANDARD PLATE
[4] = Test System: AMES SALMONELLA TYPHIMURIUM, Strain/Indicator: TA100, Metabolic Activation: RAT, LIVER, S-9, AROCLOR 1254, Method: STANDARD PLATE
[5] = Test System: AMES SALMONELLA TYPHIMURIUM, Strain/Indicator: TA1535, Metabolic Activation: NONE, Method: STANDARD PLATE
[6] = Test System: AMES SALMONELLA TYPHIMURIUM, Strain/Indicator: TA1538, Metabolic Activation: NONE, Method: STANDARD PLATE

For COc1cc(CCC(C)=O)ccc1O, the mutagenic call [1] was “inactive; negative”, the mutagenic call [2] was “inactive; negative” and the mutagenic call [3] was “inactive; negative”. For the same compound, the mutagenic call [4] was “inactive; negative”, the mutagenic call [5] was “inactive; negative” and the mutagenic call (Test System: AMES SALMONELLA TYPHIMURIUM, Strain/Indicator: TA1535, Metabolic Activation: RAT, LIVER, S-9, AROCLOR 1254, Method: STANDARD PLATE) was “inactive; negative”. For the same compound, the mutagenic call [6] was “inactive; negative”, the mutagenic call (Test System: AMES SALMONELLA TYPHIMURIUM, Strain/Indicator: TA1538, Metabolic Activation: RAT, LIVER, S-9, AROCLOR 1254, Method: STANDARD PLATE) was “inactive; negative” and the mutagenic call (Test System: E. COLI, Strain/Indicator: CM561 LEXA, Metabolic Activation: NONE, Method: STANDARD PLATE) was “inactive; negative”. For the same compound, the mutagenic call (Test System: E. COLI, Strain/Indicator: CM611 UVRA/LEXA, Metabolic Activation: NONE, Method: STANDARD PLATE) was “inactive; negative” and the mutagenic call (Test System: E. COLI, Strain/Indicator: WP2 UVRA, Metabolic Activation: NONE, Method: STANDARD PLATE) was “inactive; negative”.
In the case of O=S(=O)(c1ccc(Cl)cc1)c1cc(Cl)c(Cl)cc1Cl, the mutagenic call (End Point: In vivo chromosomal aberrations, Test System: Bone marrow cells, Species: Rat, Strain/Sex: Wistar/Female, Route: Oral) is reported as “inactive; negative”, the mutagenic call (Test System: AMES SALMONELLA TYPHIMURIUM, Strain/Indicator: TA97A, Metabolic Activation: NONE, Method: STANDARD PLATE) is reported as “inactive; negative” and the mutagenic call (Test System: AMES SALMONELLA TYPHIMURIUM, Strain/Indicator: TA97A, Metabolic Activation: RAT, LIVER, S-9, AROCLOR 1254, Method: STANDARD PLATE) is reported as “inactive; negative”. The mutagenic call [1] was “inactive; negative”, the mutagenic call [2] was “inactive; negative” and the mutagenic call [3] was “inactive; negative”. The mutagenic call [4] was “inactive; negative”, the mutagenic call (Test System: AMES SALMONELLA TYPHIMURIUM, Strain/Indicator: TA102, Metabolic Activation: NONE, Method: STANDARD PLATE) was “inactive; negative” and the mutagenic call (Test System: AMES SALMONELLA TYPHIMURIUM, Strain/Indicator: TA102, Metabolic Activation: RAT, LIVER, S-9, AROCLOR 1254, Method: STANDARD PLATE) was “inactive; negative”.
In the case of COc1cc(Oc2ccc(Cl)cc2Cl)ccc1[N+](=O)[O-], the mutagenic call (Test System: AMES SALMONELLA TYPHIMURIUM, Strain/Indicator: TA98, Metabolic Activation: S-9, Method: STANDARD PLATE) is reported as “inactive; negative”, the mutagenic call [3] is reported as “active; positive” and the mutagenic call (Test System: AMES SALMONELLA TYPHIMURIUM, Strain/Indicator: TA100, Metabolic Activation: S-9, Method: STANDARD PLATE) is reported as “inactive; negative”. For the same compound, the mutagenic call (Test System: AMES SALMONELLA TYPHIMURIUM, Strain/Indicator: TA100, Metabolic Activation: S-9 MIX, Method: STANDARD PLATE) was “inactive; negative”, the mutagenic call (Test System: AMES SALMONELLA TYPHIMURIUM, Strain/Indicator: YG1021, Metabolic Activation: NONE, Method: PREINCUBATION) was “active; positive” and the mutagenic call (Test System: AMES SALMONELLA TYPHIMURIUM, Strain/Indicator: YG1021, Metabolic Activation: RAT, LIVER, S-9, PCB, Method: PREINCUBATION) was “active; positive”. For the same compound, the mutagenic call (Test System: AMES SALMONELLA TYPHIMURIUM, Strain/Indicator: YG1021, Metabolic Activation: S-9, Method: STANDARD PLATE) was “inactive; negative”, the mutagenic call (Test System: AMES SALMONELLA TYPHIMURIUM, Strain/Indicator: YG1024, Metabolic Activation: S-9, Method: STANDARD PLATE) was “inactive; negative” and the mutagenic call (Test System: AMES SALMONELLA TYPHIMURIUM, Strain/Indicator: YG1026, Metabolic Activation: NONE, Method: PREINCUBATION) was “active; positive”. For the same compound, the mutagenic call (Test System: AMES SALMONELLA TYPHIMURIUM, Strain/Indicator: YG1026, Metabolic Activation: RAT, LIVER, S-9, PCB, Method: PREINCUBATION) was “active; positive”, the mutagenic call (Test System: AMES SALMONELLA TYPHIMURIUM, Strain/Indicator: YG1026, Metabolic Activation: S-9, Method: STANDARD PLATE) was “inactive; negative” and the mutagenic call (Test System: AMES SALMONELLA TYPHIMURIUM, Strain/Indicator: YG1029, Metabolic Activation: S-9, Method: STANDARD PLATE) was “inactive; negative”.
In the case of CCN(CC)c1ccc(C(=C2C=CC(=[N+](CC)CC)C=C2)c2ccc(N(CC)CC)cc2)cc1, the mutagenic call (Test System: AMES SALMONELLA TYPHIMURIUM, Strain/Indicator: TA98, Metabolic Activation: HAMSTER, LIVER, S-9, AROCLOR 1254 (10%), Method: STANDARD PLATE) is reported as “inactive; negative”, the mutagenic call [1] is reported as “inactive; negative” and the mutagenic call (Test System: AMES SALMONELLA TYPHIMURIUM, Strain/Indicator: TA98, Metabolic Activation: RAT, LIVER, S-9, AROCLOR 1254 (10%), Method: STANDARD PLATE) is reported as “inactive; negative”. For the same compound, the mutagenic call (Test System: AMES SALMONELLA TYPHIMURIUM, Strain/Indicator: TA100, Metabolic Activation: HAMSTER, LIVER, S-9, AROCLOR 1254 (10%), Method: STANDARD PLATE) was “inactive; negative”, the mutagenic call [3] was “inactive; negative” and the mutagenic call (Test System: AMES SALMONELLA TYPHIMURIUM, Strain/Indicator: TA100, Metabolic Activation: RAT, LIVER, S-9, AROCLOR 1254 (10%), Method: STANDARD PLATE) was “inactive; negative”. For the same compound, the mutagenic call [5] was “inactive; negative”, the mutagenic call (Test System: AMES SALMONELLA TYPHIMURIUM, Strain/Indicator: TA1535, Metabolic Activation: RAT, LIVER, S-9, AROCLOR 1254 (10%), Method: STANDARD PLATE) was “inactive; negative” and the mutagenic call (Test System: AMES SALMONELLA TYPHIMURIUM, Strain/Indicator: TA1537, Metabolic Activation: HAMSTER, LIVER, S-9, AROCLOR 1254 (10%), Method: STANDARD PLATE) was “inactive; negative”. For the same compound, the mutagenic call (Test System: AMES SALMONELLA TYPHIMURIUM, Strain/Indicator: TA1537, Metabolic Activation: NONE, Method: STANDARD PLATE) was “inactive; negative”, the mutagenic call (Test System: AMES SALMONELLA TYPHIMURIUM, Strain/Indicator: TA1537, Metabolic Activation: RAT, LIVER, S-9, AROCLOR 1254 (10%), Method: STANDARD PLATE) was “inactive; negative” and the mutagenic call (Test System: AMES SALMONELLA TYPHIMURIUM, Strain/Indicator: TA1538, Metabolic Activation: HAMSTER, LIVER, S-9, AROCLOR 1254 (10%), Method: STANDARD PLATE) was “inactive; negative”. The mutagenic call [6] was “inactive; negative”, the mutagenic call (Test System: AMES SALMONELLA TYPHIMURIUM, Strain/Indicator: TA1538, Metabolic Activation: RAT, LIVER, S-9, AROCLOR 1254 (10%), Method: STANDARD PLATE) was “inactive; negative” and the mutagenic call (Test System: Mouse lymphoma, Strain/Indicator: L5178Y (tk+/tk-), Metabolic Activation: None, Method: Suspension/plate) was “inactive; negative”. For the same compound, the mutagenic call (Test System: Mouse lymphoma, Strain/Indicator: L5178Y (tk+/tk-), Metabolic Activation: Rat, Liver, S-9, Aroclor 1254, Method: Suspension/plate) was “inactive; inconclusive (previous results negative)”.
